Among the data in US8163766B2, “Beta-secretase modulators and methods of use” (Amgen Inc., priority 2005, dated 2012) are IC50 values, retold here.

Usually IC50 stands for the concentration at which inhibition is half-maximal.

This assay has as its system Aβ 40 in conditioned media of cells stably expressing Amyloid Precursor Protein (APP). Put plainly: BACE Cell-Based Assay (Aβ40 in conditioned medium, sandwich ELISA). The conditions noted are these: 24 hours of incubation with the test compounds, Aβ 40 by sandwich ELISA, read-out: IC50 values in the cell-based assay (inhibition of Aβ 40). A digest of the protocol:
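IC50 derived from Aβ40 reduction in supernatants, quantified by europium time-resolved fluorescence ELISA with pAb40/biotin-6E10 antibodies incubated at 4°C. Cells stably expressing APP received compound for 24 h, ten concentrations from 100 μM or 10 μM top, final DMSO 0.1%.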
For the compound `CCc1ccc2c(c1)[C@@H](NC[C@@H](O)[C@H](Cc1ccccc1)NC(=O)c1cn(C3CCCC3)c(=O)c3ccccc13)CC1(CCC1)O2` [Example 162], the IC50 is ≤ 5 µM.

In the case of `CCc1ccc2c(c1)[C@@H](NC[C@@H](O)[C@H](Cc1ccccc1)NC(=O)c1ccc(=O)n(C3CCCC3)c1)CC(C)(C)O2` [Example 163], the IC50 was ≤ 5 µM.

With `CCc1ccc2c(c1)C(NC[C@@H](O)[C@H](Cc1ccccc1)NC(=O)c1cc(-c3ccccn3)c(=O)n(C3CCCC3)c1)CC1(CCC1)O2` (stereo partly drawn) [Example 164, 1-Cyclopentyl-N-((2S,3R)-4-((S)-6-ethyl-2,2-spirocyclobutylchroman-4-ylamino)-3-hydroxy-1-phenylbutan-2-yl)-6-oxo-5-(pyridin-2-yl)-1,6-dihydropyridine-3-carboxamide], the IC50 was ≤ 5 µM.

For `CCc1ccc2c(c1)[C@H](NC[C@@H](O)[C@H](Cc1ccccc1)NC(=O)c1cc(-c3ccccn3)c(=O)n(C(C)C)c1)CC1(CCCC1)O2` [Example 165, N-((2S,3R)-4((R)-6-ethyl-2,2-spirocyclopentylchroman-4-ylamino)-3-hydroxy-1-phenylbutan-2-yl)-1-isopropyl-6-oxo-5-(pyridin-2-yl)-1,6-dihydropyridine-3-carboxamide], the IC50 was ≤ 5 µM.

With `O=C(N[C@@H](Cc1ccccc1)[C@H](O)CN[C@H]1CC2(CCC2)Nc2ccc(Br)cc21)c1cc(-c2ccccn2)c(=O)n(C2CCCC2)c1` [Example 471, N-((1S,2R)-3-(((4′S)-6′-bromo-3′,4′-dihydro-1′H-spiro[cyclobutane-1,2′-quinolin]-4′-yl)amino)-2-hydroxy-1-(phenylmethyl)propyl)-1′-cyclopentyl-2′-oxo-1′,2′-dihydro-2,3′-bipyridine-5′-carboxamide], the IC50 was ≤ 5 µM.

On to `O=C(N[C@@H](Cc1ccc(F)cc1)[C@H](O)CN[C@H]1CC2(CCC2)Oc2cc(F)c(-n3cccn3)cc21)C1CC1` [Example 472, N-((1S,2R)-1-((4-fluorophenyl)methyl)-3-(((4S)-7-fluoro-6-(1H-pyrazol-1-yl)-3,4-dihydrospiro[chromene-2,1′-cyclobutan]-4-yl)amino)-2-hydroxypropyl)cyclopropanecarboxamide], for which the IC50 was ≤ 5 µM.

Regarding `O=C(N[C@@H](Cc1ccc(F)cc1)[C@H](O)CN[C@H]1CC2(CCC2)Oc2cc(F)c(-n3cccn3)cc21)C1CCC1` [Example 473, N-((1S,2R)-1-((4-fluorophenyl)methyl)-3-(((4S)-7-fluoro-6-(1H-pyrazol-1-yl)-3,4-dihydrospiro[chromene-2,1′-cyclobutan]-4-yl)amino)-2-hydroxypropyl)cyclobutanecarboxamide], the IC50 was ≤ 5 µM.

On to `CCc1ccc2c(c1)[C@@H](NCC(=O)[C@H](Cc1ccccc1)NC(=O)[C@@H]1CN(C(=O)N3CCCCC3)CCO1)CC(C)(C)O2` [Example 475, (2S)-N-((1S)-3-(((4S)-6-ethyl-2,2-dimethyl-3,4-dihydro-2H-chromen-4-yl)amino)-2-oxo-1-(phenylmethyl)propyl)-4-(1-piperidinylcarbonyl)-2-morpholinecarboxamide], for which the IC50 was ≤ 5 µM.

Consider `O=C(N[C@@H](Cc1ccccc1)[C@H](O)CN[C@H]1CC2(CCC2)Oc2ccccc21)c1cc(-c2ccccn2)c(=O)n(C2CCCC2)c1` [Example 476, 1′-cyclopentyl-N-((1S,2R)-3-((4S)-3,4-dihydrospiro[chromene-2,1′-cyclobutan]-4-ylamino)-2-hydroxy-1-(phenylmethyl)propyl)-2′-oxo-1′,2′-dihydro-2,3′-bipyridine-5′-carboxamide], for which the IC50 was ≤ 5 µM.

Turning to `CC#CC[C@H](NC(=O)c1cc(-c2ccccn2)c(=O)n(C2CCCC2)c1)[C@H](O)CN[C@H]1CC2(CCC2)Oc2ccc(CC)cc21` [Example 477, 1′-cyclopentyl-N-((1S)-1-((1R)-2-(((4S)-6-ethyl-3,4-dihydrospiro[chromene-2,1′-cyclobutan]-4-yl)amino)-1-hydroxyethyl)-3-pentyn-1-yl)-2′-oxo-1′,2′-dihydro-2,3′-bipyridine-5′-carboxamide], the IC50 is ≤ 5 µM.
